Measurements published in patent US20240358689A1, “Modulators Of The Beta-3 Adrenergic Receptor Useful For The Treatment Or Prevention Of Renal Cystic Disease and Cardiorenal Syndrome” (Arena Pharmaceuticals, Inc., priority 2021, published 2024).

Biological target: T1, Beta-3 Adrenergic Receptor (Homo sapiens, UniProt P13945)
T1 construct: expressed in transfected cells; host or cells: CHO-K1
Experiment: Homogeneous Time-Resolved Fluorescence (HTRF) cAMP antagonist assay
Type: cell-based
Conditions: Beta-3 Adrenergic Receptor IC50 Values, isoproterenol at EC90
Protocol: Example 1: IC50 Determinations in Homogeneous Time-Resolved Fluorescence (HTRF®) cAMP Antagonist Assays
HTRF cAMP assays were performed according to manufacturer's instructions (Cisbio, cAMP Dynamic 2 Assay Kit; #62AM4PEJ). CHO-K1 cells stably expressing recombinant receptor were harvested and suspended in warm PBS to make a 300,000 cells/mL stock. This cell suspension was dispensed into 384 well assay plates (PerkinElmer ProxiPlate #6008280) at 5 μL per well (1500 cells/well) along with a cAMP standard curve.
Compounds were dissolved and serially diluted (5-fold) in DMSO to generate a 10-point dose response stock. […] After a brief incubation, 2.5 μL of isoproterenol stock, prepared at a concentration 4 times its EC90 at the receptor of interest, was added to the wells. The EC90 for isoproterenol, a beta-adrenergic agonist, was determined in separate experiments using standard methods to measure agonist potencies.
Following a 1-hour incubation at room temperature, 5 μL of cAMP-D2 Reagent diluted in Lysis Buffer was added to each well followed by 5 μL of Cryptate Reagent. Plates were further incubated at room temperature for 1 hour prior to reading. Time resolved fluorescence measurements were collected on a suitable, HTRF-capable plate reader.
Counts from the plate reader were fit to the cAMP standard curve on the assay plate in order to determine cAMP concentrations in each well, and these values were used to construct dose-response curves to obtain IC50 values.

[1] = table of B compounds, CHO-K1 cells

T1 sequence (P13945 whole entry, species assumed): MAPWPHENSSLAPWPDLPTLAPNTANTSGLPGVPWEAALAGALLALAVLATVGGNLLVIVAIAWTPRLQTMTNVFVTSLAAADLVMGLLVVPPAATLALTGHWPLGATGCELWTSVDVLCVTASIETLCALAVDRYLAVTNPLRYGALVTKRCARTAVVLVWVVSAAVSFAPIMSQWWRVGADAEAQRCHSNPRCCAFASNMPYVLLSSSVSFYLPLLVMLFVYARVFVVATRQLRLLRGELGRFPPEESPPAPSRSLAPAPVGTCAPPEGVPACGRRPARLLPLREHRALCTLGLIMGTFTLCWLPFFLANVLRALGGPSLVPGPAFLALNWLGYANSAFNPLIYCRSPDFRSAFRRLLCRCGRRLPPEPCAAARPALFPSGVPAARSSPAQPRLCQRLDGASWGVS

SMILES	IC50 [1] [µM]	other results
O=S(=O)(c1cccc(OC[C@@H](O)CN[C@H]2COC3(CCN(S(=O)(=O)c4cnc5cc[nH]c5c4)CC3)C2)c1)C1CC1 [Compound A309, (S)-1-((R)-8-(1H-pyrrolo[3,2-b]pyridin-6-ylsulfonyl)-1-oxa-8-azaspiro[4.5]decan-3-ylamino)-3-(3-(cyclopropylsulfonyl)phenoxy)propan-2-ol]		IC50 (table of A compounds, CHO-K1 cells stably expressing recombinant receptor): 0.007 µM
CNS(=O)(=O)c1cccc(OC[C@@H](O)CN[C@H]2COC3(CCN(S(=O)(=O)c4cncc(-c5ccc(CN)cc5)c4)CC3)C2)c1 [Compound B375, 3-((S)-3-((R)-8-(5-(4-(aminomethyl)phenyl)pyridin-3-ylsulfonyl)-1-oxa-8-azaspiro[4.5]decan-3-ylamino)-2-hydroxypropoxy)-N-methylbenzenesulfonamide]	0.0254	
CN1CCOc2ncc(S(=O)(=O)N3CCC4(CC3)C[C@@H](NC[C@H](O)COc3cccc(S(=O)(=O)N[C@@H]5CCC[C@@H]5O)c3)CO4)cc21 [Compound B437, 3-((S)-2-hydroxy-3-((R)-8-(1-methyl-2,3-dihydro-1H-pyrido[2,3-b][1,4]oxazin-7-ylsulfonyl)-1-oxa-8-azaspiro[4.5]decan-3-ylamino)propoxy)-N-((1R,2S)-2-hydroxycyclopentyl)benzenesulfonamide]	0.472	
CNS(=O)(=O)c1cccc(OC[C@@H](O)CN[C@H]2COC3(CCN(c4nccc(C(=O)O)n4)CC3)C2)c1 [Compound B582, 2-((R)-3-((S)-2-hydroxy-3-(3-(N-methylsulfamoyl)phenoxy)propylamino)-1-oxa-8-azaspiro[4.5]decan-8-yl)pyrimidine-4-carboxylic acid]		IC50 (table of B compounds, cells in μM, CHO-K1 cells): ≥ 100 µM
